Reference: patent US8835476B2, “Synthesis of novel antimicrobials” (priority 2005, dated 2014)
≈ marks a conversion by molar mass, not a printed value. Read-outs that look alike come from different tables or passages of the source.

Legend:
Format in all cases: cell-based
[1] = test system: A. anitratus ATCC 19606; test: Broth microdilution MIC, ATCC strains; conditions: Acinetobacter calcoaceticus
Summary of the method: (§1)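 NCCLS M7-A6 broth microdilution, inoculum 5×10^5 CFU/ml, with DMSO controls; read after 16 to 20 hours at 35° C in ambient air. MIC is lowest concentration inhibiting visible growth; clinical strains were outpatient urinary isolates from NAUTICA, alongside ATCC reference strains.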

[2] = test system: B. cepacia ATCC 25416; test: Broth microdilution MIC, ATCC strains; conditions: Burkholderia cepacia
Summary of the method: as §1

[3] = test system: E. aerogenes ATCC 13048; test: Broth microdilution MIC, ATCC strains; conditions: Klebsiella aerogenes
Summary of the method: as §1

[4] = test system: E. cloacae ATCC 23355; test: Broth microdilution MIC, ATCC strains; conditions: Enterobacter cloacae
Summary of the method: as §1

[5] = test system: E. faecium ATCC 35667; test: Broth microdilution MIC, ATCC strains; conditions: Enterococcus faecium, ATCC35667, read-out: MIC (growth inhibition, microdilution method)
Summary of the method: as §1

[6] = test system: P. mirabilis ATCC 29245; test: Broth microdilution MIC, ATCC strains; conditions: Proteus mirabilis
Summary of the method: as §1

[7] = test system: P. vulgaris ATCC 49132; test: Broth microdilution MIC, ATCC strains; conditions: Proteus vulgaris
Summary of the method: as §1

[8] = test system: Pr. stuartii ATCC 33672; test: Broth microdilution MIC, ATCC strains; conditions: Providencia stuartii
Summary of the method: as §1

[9] = test system: Ps. aeruginosa ATCC 27853; test: Broth microdilution MIC, ATCC strains; conditions: for MIC: Pseudomonas aeruginosa
Summary of the method: as §1

[10] = test system: S. warneri ATCC 27836; test: Broth microdilution MIC, ATCC strains; conditions: Staphylococcus warneri
Summary of the method: as §1

[11] = test system: Ps. aeruginosa clinical isolates; test: Broth microdilution MIC, clinical isolate strains (NAUTICA); conditions: unit assumed
Summary of the method: as §1

[12] = ATCC19606, A. anitratus ATCC 19606, read-out: MIC (growth inhibition, microdilution method)
[13] = ATCC25416, B. cepacia ATCC 25416, read-out: MIC (growth inhibition, microdilution method)
[14] = ATCC13048, read-out: MIC (growth inhibition, microdilution method)
[15] = ATCC23355, read-out: MIC (growth inhibition, microdilution method)
[16] = ATCC29245, read-out: MIC (growth inhibition, microdilution method)
[17] = ATCC49132, read-out: MIC (growth inhibition, microdilution method)
[18] = ATCC33672, Pr. stuartii ATCC 33672, read-out: MIC (growth inhibition, microdilution method)
[19] = ATCC27853, read-out: MIC (growth inhibition, microdilution method), Ps. aeruginosa ATCC 27853
[20] = ATCC27853, Ps. aeruginosa ATCC 27853, read-out: MIC (growth inhibition, microdilution method)
[21] = ATCC27836, S. warneri ATCC 27836, read-out: MIC (growth inhibition, microdilution method)
[22] = ATCC33672, read-out: MIC (growth inhibition, microdilution method)
[23] = ATCC13048, E. aerogenes ATCC 13048, read-out: MIC (growth inhibition, microdilution method)
[24] = ATCC23355, E. cloacae ATCC 23355, read-out: MIC (growth inhibition, microdilution method)
[25] = ATCC29245, P. mirabilis ATCC 29245, read-out: MIC (growth inhibition, microdilution method)
[26] = ATCC49132, P. vulgaris ATCC 49132, read-out: MIC (growth inhibition, microdilution method)
[27] = Table 4B, each table row is one clinical isolate

Compound | MIC [1, 12] [µg/mL] | MIC [2, 13] [µg/mL] | MIC [5] [µg/mL] | MIC [8, 18] [µg/mL] | MIC [9, 20] [µg/mL] | MIC [10, 21] [µg/mL] | MIC [3, 23] [µg/mL] | MIC [4, 24] [µg/mL] | MIC [6, 25] [µg/mL] | MIC [7, 26] [µg/mL] | MIC, PS. AER [11, 27] [µg/mL] | also measured
O=C(O)c1cc(-c2nnn[nH]2)c(C(=O)O)s1 [DNM-111, 3-(1H-tetrazol-5-yl)thiophene-2,5-dicarboxylic acid] | 64 (≈ 266 µM) | 64 (≈ 266 µM) | 8 (≈ 33.3 µM) | 256 (≈ 1070 µM) | 64 (≈ 266 µM) | 256 (≈ 1070 µM) |  |  |  |  |  | MIC [3, 14]: 128 µg/mL (≈ 533 µM); MIC [4, 15]: 128 µg/mL (≈ 533 µM); MIC [6, 16]: 128 µg/mL (≈ 533 µM); MIC [7, 17]: 128 µg/mL (≈ 533 µM); MIC [9, 19]: 128 µg/mL (≈ 533 µM); MIC, PS. AER ([11]; clinical isolates, one table line per isolate): 128 µg/mL (≈ 533 µM)
Cn1nnc(-c2cc(C(=O)O)sc2C(=O)O)n1 [DNM-112, 3-(2-Methyl-2H-tetrazol-5-yl)-thiophene-2,5-dicarboxylic acid] |  |  | 8 (≈ 31.5 µM) |  |  | 64 (≈ 252 µM) |  |  |  |  |  | MIC ([1]; ATCC19606, read-out: MIC (growth inhibition, microdilution method)): > 256 µg/mL; MIC ([2]; ATCC25416, read-out: MIC (growth inhibition, microdilution method)): > 256 µg/mL; MIC [3, 14]: > 256 µg/mL; MIC [4, 15]: > 256 µg/mL; MIC [6, 16]: > 256 µg/mL; MIC [7, 17]: > 256 µg/mL; MIC [8, 22]: > 256 µg/mL; MIC [9, 19]: > 256 µg/mL
COC(=O)c1cc(-c2nnn(C)n2)c(C(=O)OC)s1 [DNM-114, 3-(2-methyl-2H-tetrazol-5-yl)-thiophene-2,5-dicarboxylic acid dimethyl ester] | 64 (≈ 227 µM) | 64 (≈ 227 µM) | 8 (≈ 28.3 µM) |  | 64 (≈ 227 µM) |  |  |  |  |  |  | MIC [3, 14]: 128 µg/mL (≈ 453 µM); MIC [4, 15]: 128 µg/mL (≈ 453 µM); MIC [6, 16]: 128 µg/mL (≈ 453 µM); MIC [7, 17]: 128 µg/mL (≈ 453 µM); MIC [8, 22]: 128 µg/mL (≈ 453 µM); MIC [9, 19]: 128 µg/mL (≈ 453 µM); MIC ([10]; ATCC27836, read-out: MIC (growth inhibition, microdilution method)): 128 µg/mL (≈ 453 µM)
O=C(O)c1cc(-c2nn[nH]n2)cs1 [DNM-116, 4-(2H-Tetrazol-5-yl)-thiophene-2-carboxylic acid] | 16 (≈ 81.6 µM) | 16 (≈ 81.6 µM) | 8 (≈ 40.8 µM) | 32 (≈ 163 µM) | 16 (≈ 81.6 µM) | 32 (≈ 163 µM) | 16 (≈ 81.6 µM) | 16 (≈ 81.6 µM) | 32 (≈ 163 µM) | 32 (≈ 163 µM) |  | 
O=C(O)c1cc(-c2nnn[nH]2)c(-c2ccc(F)cc2)s1 [DNM-121, 5-(4-Fluoro-phenyl)-4-(1H-tetrazol-5-yl)-thiophene-2-carboxylic acid] | 64 (≈ 220 µM) | 64 (≈ 220 µM) | 8 (≈ 27.6 µM) | 64 (≈ 220 µM) | 64 (≈ 220 µM) | 64 (≈ 220 µM) | 64 (≈ 220 µM) | 64 (≈ 220 µM) | 64 (≈ 220 µM) | 64 (≈ 220 µM) |  | 
Cn1nnc(-c2cc(C(=O)O)sc2-c2ccc(F)cc2)n1 [DNM-123, 5-(4-fluorophenyl)-4-(2-methyl-2H-tetrazol-5-yl)thiophene-2-carboxylic acid] | ≤ 0.5 | ≤ 0.5 | 8 (≈ 26.3 µM) | > 8 | 8 (≈ 26.3 µM) | > 8 | 8 (≈ 26.3 µM) | 8 (≈ 26.3 µM) | > 8 | > 8 |  | MIC (growth inhibition, microdilution method) ([9]; Ps. aeruginosa ATCC 27853): 8 µg/mL (≈ 26.3 µM)
CCOC(=O)c1cc(-c2nnn[nH]2)c(-c2ccc(F)cc2)s1 [DNM-124, 5-(4-Fluoro-phenyl)-4-(1H-tetrazol-5-yl)-thiophene-2-carboxylic acid ethyl ester] | 64 (≈ 201 µM) | 64 (≈ 201 µM) | > 64 | > 64 | > 64 | > 64 | > 64 | > 64 | > 64 | > 64 |  | 
CCOC(=O)c1cc(-c2nnn(C)n2)c(-c2ccc(F)cc2)s1 [DNM-125, ethyl 5-(4-fluorophenyl)-4-(2-methyl-2H-tetrazol-5-yl)thiophene-2-carboxylate] | > 16 | > 16 | > 16 | > 16 | > 16 | > 16 | > 16 | > 16 | > 16 | > 16 | > 16 | 
Fc1ccc(-c2cc(-c3nnn[nH]3)c(-c3ccc(F)cc3)s2)cc1 [DNM-131, 5-(2,5-Bis(4-fluorophenyl)thiophen-3-yl)-1H-tetrazole] | > 32 | > 32 | > 32 | > 32 | > 32 | > 32 | > 32 | > 32 | > 32 | > 32 | > 32 | 
Cn1nnc(-c2cc(-c3ccc(F)cc3)sc2-c2ccc(F)cc2)n1 [DNM-132, 5-(2,5-bis(4-fluorophenyl)thiophen-3-yl)-2-methyl-2H-tetrazole] | > 16 | > 16 | > 16 | > 16 | > 16 | > 16 | > 16 | > 16 | > 16 | > 16 | > 16 | 
Cn1nnnc1-c1cc(-c2ccc(F)cc2)sc1-c1ccc(F)cc1 [DNM-133, 5-(2,5-Bis(4-fluorophenyl)thiophen-3-yl)-1-methyl-1H-tetrazole] | > 16 | > 16 | > 16 | > 16 | > 16 | > 16 | > 16 | > 16 | > 16 | > 16 | > 16 | 
O=C(O)c1sc(-c2ccc(F)cc2)cc1-c1nnn[nH]1 [DNM-141, 5-(4-Fluoro-phenyl)-3-(1H-tetrazol-5-yl)-thiophene-2-carboxylic acid] | > 16 | > 16 | > 16 | > 16 | > 16 | > 16 | > 16 | > 16 | > 16 | > 16 | > 16 | 
Cn1nnc(-c2cc(-c3ccc(F)cc3)sc2C(=O)O)n1 [DNM-142, 5-(4-Fluoro-phenyl)-3-(2-methyl-2H-tetrazol-5-yl)-thiophene-2-carboxylic acid] | > 16 | > 16 | > 16 | > 16 | > 16 | > 16 | > 16 | > 16 | > 16 | > 16 | > 16 | 
Cn1nnnc1-c1cc(-c2ccc(F)cc2)sc1C(=O)O [DNM-143, 5-(4-Fluoro-phenyl)-3-(1-methyl-1H-tetrazol-5-yl)-thiophene-2-carboxylic acid] | > 8 | > 8 | > 8 | > 8 | > 8 | > 8 | > 8 | > 8 | > 8 | > 8 | > 8 | 
COC(=O)c1sc(-c2ccc(F)cc2)cc1-c1nnn(C)n1 [DNM-144, 5-(4-fluoro-phenyl)-3-(2-methyl-2H-tetrazol-5-yl)-thiophene-2-carboxylic acid methyl ester] | > 8 | > 8 | > 8 | > 8 | > 8 | > 8 | > 8 | > 8 | > 8 | > 8 | > 8 | 
COC(=O)c1sc(-c2ccc(F)cc2)cc1-c1nnnn1C [DNM-145, 5-(4-Fluoro-phenyl)-3-(1-methyl-1H-tetrazol-5-yl)-thiophene-2-carboxylic acid methyl ester] | > 4 | > 4 | > 4 | > 4 | > 4 | > 4 | > 4 | > 4 | > 4 | > 4 | > 4 | 
